Test results reported in patent publication US8383642B2, “Spiropiperidine compounds” (Eli Lilly and Company, priority 2009, dated 2013).

Legend:
pancreatic islets = test: GDIS assay, primary rodent pancreatic islets of Langerhans; assay type: cell-based; settings: different concentrations; compared to 11.2 mM glucose alone; 90 minutes; SD rat islets
Excerpt: Because activation of GPR40 is known to result in insulin secretion which is dependent on high glucose concentrations, two separate assay systems (insulinoma cell line and primary rodent islets) are developed to further characterize compounds that are known to increase intracellular calcium in the GPR40 primary assay discussed above.
GDIS assays using primary rodent pancreatic islets of Langerhans are also used to characterize exemplified compounds. Pancreatic islets are isolated from male SD (Sprague Dawley) rats by collagenase digestion and Histopaque density gradient separation. The islets are cultured overnight in RPMI-1640 medium with GlutaMAXn (stabilized, dipeptide form of L-glutamine (Invitrogen catalog #61870-010)) to facilitate recovery from the isolation process. Insulin secretion is determined by a 90 minute incubation in EBSS (Earle's Balances Salt Solution) buffer in a 48-well plate. Briefly, islets are first preincubated in EBSS with 2.8 mM glucose for 30 min and are then transferred to a 48-well plate (four islets/well) containing 150 μl 2.8 mM glucose and incubated with 150 μl of EBSS with 2.8 or 11.2 mM glucose in the presence or absence of test compounds for 90 minutes. The buffer is removed from the wells at the end of the incubation and assayed for insulin levels using the Rat Insulin ELISA kit (Mercodia). […]

Male Balb/c mice = test: Intraperitoneal Glucose Tolerance Test (IPGTT); assay type: in vivo, mouse; settings: for glucose levels: positive control 10 mg/kg
Description: To examine the ability of exemplified compounds to activate GPR40 in-vivo resulting in anti-diabetic efficacy, i.e. an increase in insulin and reduction in glucose levels, a 4-day intraperitoneal glucose tolerance test (ipGTT) study is completed with each compound.
Male Balb/c (Albino mice) mice (8-9 weeks of age) are single housed and fed with normal rodent chow diet and water ad libitum. Animals are weighed and randomized by body weight and daily body weights are recorded. Upon study initiation, animals are dosed once per day orally for three days using a formulation carrying methylcellulose and tween-80. On the night before the 4-day IPGTT study, animals are fasted overnight in clean cages. On the morning of the IPGTT (Day 4), animals are dosed orally with compound or vehicle alone 60 minutes prior to the IPGTT (glucose 2 g/kg, i.p.). Blood glucose levels are determined from tail bleeds taken at 0, 3, 7, 15, 30, and 60 min after glucose challenge. Plasma is isolated and used to estimate respective insulin levels. The blood glucose excursion profile from t=0 to t=60 min is used to integrate an area under the curve (AUC) for each treatment. Percent lowering in glucose is calculated from the AUC data of the compounds with respect to the AUC of vehicle group. The test compound is orally administered at 0.03, 0.1, 0.3, 1.0, or 3.0 mg/kg, and a positive control is administered at 10 mg/kg. […] The ED50 for the compound of Example 1 based on AUCs for glucose lowering is 0.09 mg/kg. […] The results of this assay support the compound's activation of GPR-40, with resulting in vivo anti-diabetic efficacy.

For `CC#C[C@@H](CC(=O)O)c1ccc(OCc2ccc(CN3CCC4(C=Cc5ccccc54)CC3)cc2)cc1` [Example 1, (3S)-3-(4-{[4-(1′H-Spiro[indene-1,4′-piperidin]-1′-ylmethyl)benzyl]oxy}phenyl)hex-4-ynoic acid], the increase in insulin (pancreatic islets) was 2- to 4 fold, the insulin levels (Male Balb/c mice; 3 minute time point, 1.0 and 3.0 mg/kg oral) was “significantly elevated” and the glucose levels (Male Balb/c mice; 3 minute time point, Example 1 0.03-3.0 mg/kg oral) was “No concentration of the compound of Example 1 or the positive control significantly lowered”. For the same compound, the glucose levels (Male Balb/c mice; 7 minute time point, Example 1 0.3, 1.0, and 3.0 mg/kg oral) was “significantly lowered”, the glucose levels (Male Balb/c mice; 15 minute time point, Example 1 0.1, 0.3, 1.0, and 3.0 mg/kg oral) was “significantly lowered” and the glucose levels (Male Balb/c mice; 30 minute time point, all doses of Example 1 (0.03-3.0 mg/kg oral)) was “significantly lowered”. The glucose levels (Male Balb/c mice; 60 minute time point, all doses of Example 1 (0.03-3.0 mg/kg oral)) was “significantly lowered” and the ED50 (Male Balb/c mice; Mus musculus, oral, once per day, 4-day, glucose 2 g/kg i.p., AUC t=0 to 60 min, read-out: ED50 based on AUCs for glucose lowering) was 0.09 mg/kg.
